# ChEMBL document CHEMBL5233251, “Epoxide containing molecules: A good or a bad drug design approach” (Eur J Med Chem, 2020)
# Assays:
# NCI-H522 = assay: Cytotoxicity against human NCI-H522 cells assessed as inhibition of cell growth incubated for 3 days; assay type: functional, cell-based; conditions: NCI-H522, 72 h
# [1] = Cytotoxicity against human RPMI-8226/Dox40 cells assessed as inhibition of cell growth incubated for 3 days; assay type: functional, cell-based; conditions: RPMI-8226, 72 h
# Hyalomma lusitanicum = assay: Anti-insecticidal activity against Hyalomma lusitanicum Koch larvae assessed as inhibition of larval growth; assay type: functional; conditions: for LC50: Hyalomma lusitanicum, read-out: LD50 (the source's name)
# HEp-2 = assay: Cytotoxicity against human HEp-2 cells assessed as inhibition of cell growth; assay type: functional; conditions: read-out: ED50 (the source's name)
# Aromatase [2] = target: T1, Aromatase (Homo sapiens, UniProt P11511); assay: Inhibition of aromatase in human MCF-7aro cells using [1beta-3H] androstenedione as substrate at 10 uM incubated for 1 hrs relative to control; assay type: cell-based
# T1 sequence (P11511 whole entry): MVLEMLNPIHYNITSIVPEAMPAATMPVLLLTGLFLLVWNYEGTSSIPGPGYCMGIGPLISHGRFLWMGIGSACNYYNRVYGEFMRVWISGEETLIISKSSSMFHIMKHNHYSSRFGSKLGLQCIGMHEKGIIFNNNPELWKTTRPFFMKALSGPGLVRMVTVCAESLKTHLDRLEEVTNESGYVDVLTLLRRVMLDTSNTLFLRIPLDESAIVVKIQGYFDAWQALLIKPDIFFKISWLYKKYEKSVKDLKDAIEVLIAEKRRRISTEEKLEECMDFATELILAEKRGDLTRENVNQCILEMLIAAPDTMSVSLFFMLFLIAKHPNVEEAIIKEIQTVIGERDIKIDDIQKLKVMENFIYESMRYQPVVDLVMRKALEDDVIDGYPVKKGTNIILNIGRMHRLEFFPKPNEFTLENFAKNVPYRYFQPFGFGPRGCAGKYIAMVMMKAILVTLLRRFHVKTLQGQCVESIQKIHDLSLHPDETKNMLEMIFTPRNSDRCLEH
# Aromatase [3] = target: T1, Aromatase; assay: Inhibition of aromatase in human MCF-7aro cells using [1beta-3H] androstenedione as substrate incubated for 1 hrs; assay type: cell-based
# Aromatase [4] = target: T1, Aromatase; assay: Inhibition of aromatase in disrupted human MCF-7aro cells using [1beta-3H] androstenedione as substrate incubated for 1 hrs in the presence of NADPH
# A2780 [5] = assay: Cytotoxicity against human A2780 cells assessed as inhibition of cell growth incubated for 96 hrs by SRB assay; assay type: toxicity, cell-based; conditions: A2780, 96 h
# MG-63 [6] = assay: Antiproliferative activity against human MG-63 cells assessed as inhibition of cell growth by MTT assay; assay type: functional, cell-based
# MG-63 [7] = assay: Antiproliferative activity against human MG-63 cells assessed as reduction in cell viability by SRB assay; assay type: functional, cell-based
# HCT-116 = assay: Antiproliferative activity against human HCT-116 cells assessed as inhibition of cell growth incubated for 72 hrs by MTT assay; assay type: functional, cell-based; conditions: HCT-116, 72 h
# OVCAR-8 = assay: Antiproliferative activity against human OVCAR-8 cells assessed as inhibition of cell growth incubated for 72 hrs by MTT assay; assay type: functional, cell-based; conditions: OVCAR-8, 72 h
# SF-295 = assay: Antiproliferative activity against human SF-295 cells assessed as inhibition of cell growth incubated for 72 hrs by MTT assay; assay type: functional, cell-based; conditions: SF-295, 72 h
# HL-60 = assay: Antiproliferative activity against human HL-60 cells assessed as inhibition of cell growth incubated for 72 hrs by MTT assay; assay type: functional, cell-based; conditions: HL-60, 72 h
# Leishmania donovani = assay: Antileishmanial activity against Leishmania donovani promastigotes; assay type: functional, organism-based
# MCF7 [8] = assay: Antiproliferative activity against human MCF7 cells assessed as reduction in cell viability incubated for 48 hrs by CytoX cell viability assay; assay type: functional, cell-based; conditions: MCF7, 48 h
# HeLa [9] = assay: Antiproliferative activity against human HeLa cells assessed as reduction in cell viability incubated for 48 hrs by CytoX cell viability assay; assay type: functional, cell-based
# DU-145 = assay: Antiproliferative activity against human DU-145 cells assessed as reduction in cell viability incubated for 48 hrs by CytoX cell viability assay; assay type: functional, cell-based; conditions: DU-145, 48 h
# HCT-15 = assay: Antiproliferative activity against human HCT-15 cells assessed as reduction in cell viability incubated for 48 hrs by CytoX cell viability assay; assay type: functional, cell-based; conditions: HCT-15, 48 h
# K562 [10] = assay: Antiproliferative activity against human K562 cells assessed as reduction in cell viability incubated for 48 hrs by CytoX cell viability assay; assay type: functional, cell-based; conditions: K562, 48 h
# MDA-MB-231 = assay: Cytotoxicity against human MDA-MB-231 cells assessed as inhibition of cell growth incubated for 48 hrs by SRB assay; assay type: functional, cell-based; conditions: MDA-MB-231, 48 h
# A2780 [11] = assay: Antiproliferative activity against human A2780 cells assessed as inhibition of cell proliferation incubated for 4 days by MTT assay; assay type: functional, cell-based; conditions: A2780, 96 h
# Malme-3M = assay: Antiproliferative activity against human Malme-3M cells assessed as inhibition of cell proliferation incubated for 4 days by MTT assay; assay type: functional, cell-based; conditions: 96 h
# MCF7 [12] = assay: Antiproliferative activity against human MCF7 cells assessed as inhibition of cell proliferation incubated for 4 days by MTT assay; assay type: functional, cell-based; conditions: MCF7, 96 h
# HT-29 = assay: Antiproliferative activity against human HT-29 cells assessed as inhibition of cell proliferation incubated for 4 days by MTT assay; assay type: functional, cell-based; conditions: HT-29, 96 h
# HeLa [13] = assay: Antiproliferative activity against human HeLa cells assessed as inhibition of cell proliferation incubated for 4 days by MTT assay; assay type: functional, cell-based; conditions: 96 h
# NCI-H1299 = assay: Antiproliferative activity against human NCI-H1299 cells assessed as inhibition of cell proliferation incubated for 4 days by MTT assay; assay type: functional, cell-based; conditions: NCI-H1299, 96 h
# K562 [14] = assay: Antiproliferative activity against human K562/C1000 cells assessed as inhibition of cell proliferation incubated for 4 days by MTT assay; assay type: functional, cell-based; conditions: K562, 96 h
# PC-3 = assay: Cytotoxicity against human PC-3 cells assessed as inhibition of cell growth incubated for 48 hrs by SRB assay; assay type: functional, cell-based; conditions: PC-3, 48 h
# MCF7 [15] = assay: Cytotoxicity against human MCF7 cells assessed as inhibition of cell growth incubated for 48 hrs by SRB assay; assay type: functional, cell-based; conditions: MCF7, 48 h
# Plasmodium falciparum [16] = assay: Antimalarial activity against chloroquine-sensitive Plasmodium falciparum D10 incubated for 48 hrs; assay type: functional, organism-based; conditions: D10, 48 h
# Plasmodium falciparum [17] = assay: Antimalarial activity against […] incubated for 48 hrs; assay type: functional, organism-based; conditions: K1, 48 h
# Plasmodium falciparum [18] = assay: Antimalarial activity against Sulfadoxine-sensitive Plasmodium falciparum FCR3; assay type: functional, organism-based
# Plasmodium falciparum [19] = assay: Antimalarial activity against Sulfadoxine-sensitive Plasmodium falciparum HB3; assay type: functional, organism-based
# Plasmodium falciparum [20] = assay: Antimalarial activity against Sulfadoxine-sensitive Plasmodium falciparum D6; assay type: functional, organism-based
# Plasmodium falciparum [21] = assay: Antimalarial activity against Sulfadoxine-resistant Plasmodium falciparum W2; assay type: functional, organism-based
# Plasmodium falciparum [22] = assay: Antimalarial activity against Sulfadoxine-resistant Plasmodium falciparum 3D7; assay type: functional, organism-based
smiles,measurement,setting,value
C[C@]1([C@H]2Cc3ccc4c(c3O2)-n2cc(C(=O)O)c(=O)c3cc(F)c(N5CC[C@H](N)C5)c(c32)O4)CO1,IC50,NCI-H522,0.07 µM
same,IC50,[1],0.05 µM
CC(C)=C1C/C=C(\C)CC/C=C(\C)CC1=O,LD90,Hyalomma lusitanicum,3.13 mg/mL
same,LC50,Hyalomma lusitanicum,1080 µg/mL
C=C1C(=O)O[C@@H]2C[C@@H](C)[C@@H]3C4OC4C(=O)[C@@]3(C)[C@@H](O)[C@H]12 (some centres not stated),EC50,HEp-2,0.11 µg/mL
C[C@]12CC[C@H]3[C@@H](CC[C@@]45O[C@@H]4CCC[C@]35C)[C@@H]1CCC2=O,inhibition at 10 µM,Aromatase [2],52.2%
same,IC50,Aromatase [3],8.5 µM
same,IC50,Aromatase [4],1.2 µM
CC1=CC[C@]23O[C@@]2(C)CC[C@@H]2[C@H](OC(=O)[C@H]2CN2CCNCC2)[C@@H]13,IC50,A2780 [5],3.75 µM
C[C@@H]1CC[C@@H]([C@]2(C)CO2)[C@H](OCc2ccccc2)C1,IC50,MG-63 [6],100 µM
same,IC50,MG-63 [7],100 µM
C=C(C)[C@H]1CCC2(C=O)OC2C1 (some centres not stated),IC50,HCT-116,16.1 µM
same,IC50,OVCAR-8,23.6 µM
same,IC50,SF-295,22 µM
same,IC50,HL-60,9.7 µM
same,IC50,Leishmania donovani,64.6 µg/mL
CC(C)=C1C/C=C(\C)CC[C@H]2O[C@@]2(C)CC1=O,LD90,Hyalomma lusitanicum,4.1 mg/mL
same,LC50,Hyalomma lusitanicum,2700 µg/mL
CC1C(=O)O[C@@H]2C[C@@H](C)[C@]34O[C@H]3CC(=O)[C@@]4(C)[C@@H](O)[C@H]12 (some centres not stated),EC50,HEp-2,0.11 µg/mL
Cc1cc(=O)c2c(OC[C@@H]3CO3)cc(OC[C@H]3CO3)cc2o1,IC50,MCF7 [8],13.9 µM
same,IC50,HeLa [9],11 µM
same,IC50,DU-145,20.4 µM
same,IC50,HCT-15,12.1 µM
same,IC50,K562 [10],1.49 µM
Cc1cc(=O)c2c(OC[C@@H]3CO3)cc(OC[C@@H]3CO3)cc2o1,IC50,MCF7 [8],46.1 µM
same,IC50,HeLa [9],21.7 µM
same,IC50,DU-145,24.5 µM
same,IC50,HCT-15,39.5 µM
same,IC50,K562 [10],19.5 µM
C=C1C(=O)O[C@@H]2C[C@@H](C)[C@]34O[C@H]3CC(=O)[C@@]4(C)[C@@H](O)[C@H]12,EC50,HEp-2,0.11 µg/mL
C[C@@H]1OC(=O)C[C@H]2[C@@H]3CC[C@]45O[C@H]4C(=O)CC[C@]5(C)[C@H]3CC[C@]12C,IC50,MDA-MB-231,3.6 µM
CC1=C2CC3(OC3(C)C)C(=O)C[C@@]2(C)CCC1 (some centres not stated),LD90,Hyalomma lusitanicum,6.33 mg/mL
same,LC50,Hyalomma lusitanicum,4140 µg/mL
Cc1cc(=O)c2c(O)cc(OC[C@H]3CO3)cc2o1,IC50,MCF7 [8],22.9 µM
same,IC50,HeLa [9],16.7 µM
same,IC50,DU-145,15.2 µM
same,IC50,HCT-15,27.2 µM
same,IC50,K562 [10],9.74 µM
CC1(C)NC(=O)[C@@H](CCCCCC(=O)[C@@H]2CO2)NC(=O)CC2CCCN2C(=O)[C@@H](Cc2ccccc2)NC1=O (some centres not stated),IC50,A2780 [11],0.00036 µM
same,IC50,Malme-3M,0.045 µM
same,IC50,MCF7 [12],0.0053 µM
same,IC50,HT-29,0.0043 µM
same,IC50,HeLa [13],0.014 µM
same,IC50,NCI-H1299,0.004 µM
same,IC50,K562 [14],0.00076 µM
CC(C)=C1C[C@H]2O[C@@]2(C)CC/C=C(\C)CC1=O,LD90,Hyalomma lusitanicum,3.45 mg/mL
same,LC50,Hyalomma lusitanicum,1470 µg/mL
C[C@]12CC[C@H]3[C@@H]([C@@H]4O[C@@H]4C4=CC(=O)C=C[C@@]43C)[C@@H]1CC(=O)OC2,IC50,PC-3,> 100 µM
same,IC50,MCF7 [15],> 100 µM
same,IC50,MDA-MB-231,> 100 µM
CC(C)[C@@]12CC[C@@](C)(OO1)[C@@H]1O[C@@H]12,IC50,Plasmodium falciparum [16],0.08 µM
same,IC50,Plasmodium falciparum [17],0.08 µM
same,IC50,Plasmodium falciparum [18],0.01 µM
same,IC50,Plasmodium falciparum [19],0.01 µM
same,IC50,Plasmodium falciparum [20],0.01 µM
same,IC50,Plasmodium falciparum [21],> 10 µM
same,IC50,Plasmodium falciparum [22],> 10 µM
